Target mRNA inhibition data for 89 sequences are collected here from the OligoGym collection.

Where “and” joins values, the source holds several entries; their conditions need not be identical. Equal entries are not always repeated. After the bases stand the sugars from the 5' end (letter, count) and the backbone: PS all phosphorothioate, else s phosphorothioate and o phosphodiester by linkage. Methylation of C is not given here. l = locked nucleic acid (LNA); d = 2'-deoxy (DNA)

The target of one series is MYH7. Particulars: ASO, CC-2580, 5 µM.
The target of the next series is HTRA1. The conditions noted are these: ASO, U251, 5 µM.
The next series deals with ANGPTL2. The conditions noted are these: ASO.

“CAGCTTGGCGATGATCT (sugars lddlddddddldlldll, PS)”: the target mRNA inhibition with MYH7 was 21% and 13%.

On to “CAGCTTGGCGATGATCT (sugars ldlddlddddddlddll, PS)”, for which the target mRNA inhibition in the series with MYH7 was 47% and 25%. For the sequence “CTTGGCAATGATCTCATCC (sugars l4 d11 l4, PS)”, the target mRNA inhibition with MYH7 was 61% and 50%. On the same count and under the same terms, then “TCAGCTTGGCGATGATCT (sugars l2 d9 l1 d2 l4, PS)”, with 31% and 40%; and “TCAGCTTGGCGATGATCT (sugars lldldddddddddldlll, PS)”, with 59% and 40%. “CAGCTTGGCGATGATCT (sugars lddlddldlldddddll, PS)”: in the series with MYH7, the target mRNA inhibition was -27% and -45%.

“TATCGACTGCATTAGTTG (sugars l2 d12 l4, PS)”: in the series with HTRA1, the target mRNA inhibition turned out to be 58%.

Regarding “CAGCTTGGCGATGATCT (sugars lllddddddddldldll, PS)”, the target mRNA inhibition with MYH7 was 28% and 6%. For the sequence “CTTGGCAATGATCTCATCC (sugars lldldddddddldldldll, PS)”, the target mRNA inhibition with MYH7 is 39% and 26%. On to “CAGCTTGGCGATGATCT (sugars lldddddddlldlddll, PS)”, for which the target mRNA inhibition in the series with MYH7 is 21% and 29%. Same read-out and setting: then “TCAGCTTGGCGATGATCT (sugars lddldldddddddlddll, PS)”, with 31% and 9%. Regarding “TCAGTTAAAGGAGGAGACAA (sugars l3 d14 l3, PS)”, the target mRNA inhibition with HTRA1 was 40%.

Take “CAGCTTGGCGATGATCT (sugars llddlddddddldldll, PS)”: in the series with MYH7, the target mRNA inhibition is 18% and 3%.

As for “TATCTACGCATTGTATCG (sugars l4 d12 l2, PS)”, the target mRNA inhibition in the series with HTRA1 stood at 71%. As for “CAGCTTGGCGATGATCT (sugars lldddddddddldldll, PS)”, in the series with MYH7, the target mRNA inhibition is 40% and 22%.

Regarding “CAGCTTGGCGATGATCT (sugars lddldddddddldddll, PS)”, the target mRNA inhibition with MYH7 is -4% and -11%.

For the sequence TATCTACGCATTGTAT (sugars l3 d10 l3, PS), the target mRNA inhibition with HTRA1 is 98% and 89%.

On to “CAGCTTGGCGATGATCT (sugars lldddldddddldldll, PS)”, for which the target mRNA inhibition in the series with MYH7 is 25% and 16%.

As to “TTCTTCTATCTACGCATT (sugars l4 d11 l3, PS)”, the target mRNA inhibition in the series with HTRA1 was determined as 88%. “CAGCTTGGCGATGATCT (sugars lddlldldlddddddll, PS)”: the target mRNA inhibition with MYH7 was 9% and -15%. Still for that read-out and setting: to “CAGCTTGGCGATGATCT (sugars l2 d8 l3 d2 l2, PS)” belongs 39% and 30%; to “CAGCTTGGCGATGATCT (sugars ldldddddddlddldll, PS)”, 39% and 27%. On to CTTCTATCTACGCATT (sugars l4 d8 l4, PS), for which the target mRNA inhibition with HTRA1 was 83%. Take “CTATCTACGCATTGTATC (sugars l2 d12 l4, PS)”: the target mRNA inhibition with HTRA1 was determined as 77%.

Take “CAGCTTGGCGATGATCT (sugars ldldlddddddldldll, PS)”: in the series with MYH7, the target mRNA inhibition was 5% and -12%. As to “TCAGCTTGGCGATGATCT (sugars ldldlddddddldlddll, PS)”, the target mRNA inhibition in the series with MYH7 was -4% and -12%. Turning to “CAGCTTGGCGATGATCT (sugars lddlddddddddlddll, PS)”, the target mRNA inhibition with MYH7 was 35% and 18%. The same measure, in the same setting: to “CAGCTTGGCGATGATCT (sugars lddlddddddlllddll, PS)” belongs -30%. For TCTACGCATTGTATCG (sugars l4 d8 l4, PS), in the series with HTRA1, the target mRNA inhibition turned out to be 96%. With “CAGCTTGGCGATGATCT (sugars l2 d10 l1 d2 l2, PS)”, the target mRNA inhibition in the series with MYH7 was 64% and 43%.

Consider “TATCGACTGCATTAGTT (sugars l4 d10 l3, PS)”, for which, in the series with HTRA1, the target mRNA inhibition is 73%. The same measure, in the same setting: then TACTTTAATAGCTCAA (sugars l4 d8 l4, PS), with 95%; and “TCTTCTATCTACGCATTGT (sugars l2 d15 l2, PS)”, with 57%. Take “CAGCTTGGCGATGATCT (sugars ldldlddddddllddll, PS)”: the target mRNA inhibition with MYH7 is 26% and 7%.

As for “CTTGGCAATGATCTCATCC (sugars lddlddddddddlddldll, PS)”, the target mRNA inhibition in the series with MYH7 was 59% and 39%. ATGTGTAAGAAGTACT (sugars l3 d10 l3, PS): the target mRNA inhibition in the series with HTRA1 amounted to 70%. For “TCAGCTTGGCGATGATCT (sugars llddldddddddldddll, PS)”, the target mRNA inhibition with MYH7 is 35% and 17%. “CTTGGCAATGATCTCATCC (sugars l4 d13 l2, PS)”: the target mRNA inhibition with MYH7 is 60% and 45%. As for CTACGCATTGTATCGA (sugars l4 d8 l4, PS), the target mRNA inhibition in the series with HTRA1 came out at 77%. For “TCAGCTTGGCGATGATCT (sugars lddldddddddlddllll, PS)”, the target mRNA inhibition with MYH7 was 43% and 45%. With “TCTATCTACGCATTGTATC (sugars l3 d14 l2, PS)”, the target mRNA inhibition in the series with HTRA1 is 69%.

Consider “CTTGGCAATGATCTCATCC (sugars lldldldddddddldldll, PS)”, for which the target mRNA inhibition with MYH7 was 16% and -4%.

With “TAAGAAGTACTTTAATAG (sugars l4 d10 l4, PS)”, the target mRNA inhibition in the series with HTRA1 came to 65%. Regarding “TGTAAGAAGTACTTTAATAG (sugars l4 d12 l4, PS)”, in the series with HTRA1, the target mRNA inhibition was 79%. ATTGTATCGACTGCAT (sugars l3 d11 l2, PS): in the series with HTRA1, the target mRNA inhibition turned out to be 99%. On to “CTCAGTTAAAGGAGGAGACA (sugars l3 d15 l2, PS)”, for which the target mRNA inhibition in the series with HTRA1 came out at 26%. Take “TCAGCTTGGCGATGATCT (sugars ldldlddddddlldldll, PS)”: the target mRNA inhibition with MYH7 was -30% and -41%.

In the case of “CAGCTTGGCGATGATCT (sugars lddldddddddldllll, PS)”, the target mRNA inhibition with MYH7 is 7% and -16%. “GCAATGTGTAAGAAGTA (sugars l3 d10 l4, PS)”: the target mRNA inhibition with HTRA1 came to 59%. As to “CTTGGCAATGATCTCATCC (sugars lldddddddldddlddlll, PS)”, in the series with MYH7, the target mRNA inhibition was 54% and 31%. Turning to CTATCTACGCATTGTA (sugars l4 d8 l4, PS), the target mRNA inhibition in the series with HTRA1 was 95%. Still for that read-out and setting: to ATCTACGCATTGTATC (sugars l4 d8 l4, PS) belongs 87%. CAGCTTGGCGATGATCT (sugars l4 d9 l4, PS): in the series with MYH7, the target mRNA inhibition was 27% and 4%. Take “CTTGGCAATGATCTCATCC (sugars lldlddddddlddldldll, PS)”: the target mRNA inhibition with MYH7 was determined as 1%.

Regarding TGTATCGACTGCATTA (sugars l4 d8 l4, PS), the target mRNA inhibition with HTRA1 is 95%. With “CAGCTTGGCGATGATCT (sugars lddllddddddllddll, PS)”, the target mRNA inhibition with MYH7 was 9% and -10%. Consider “CTTGGCAATGATCTCATCC (sugars llldddddddlddldldll, PS)”, for which the target mRNA inhibition with MYH7 is 60% and 35%. Consider “CAGCTTGGCGATGATCT (sugars lddldlddlldddddll, PS)”, for which the target mRNA inhibition in the series with MYH7 is 13% and 3%.

On to ATCGACTGCATTAGTT (sugars l3 d10 l3, PS), for which the target mRNA inhibition with HTRA1 is 99%. As for “CAGCTTGGCGATGATCT (sugars llddddddddldlddll, PS)”, the target mRNA inhibition in the series with MYH7 is 26% and 5%. Regarding “CAGCTTGGCGATGATCT (sugars lddlldddddddldlll, PS)”, the target mRNA inhibition in the series with MYH7 is 4% and -21%.

As for “CTTGGCAATGATCTCATCC (sugars l3 d12 l4, PS)”, the target mRNA inhibition in the series with MYH7 is 89% and 66%.

Take “CAGCTTGGCGATGATCT (sugars ldllldddddlddddll, PS)”: the target mRNA inhibition with MYH7 is 49% and 30%.

As to “CTTGGCAATGATCTCATCC (sugars ldldddddddddlddldll, PS)”, the target mRNA inhibition in the series with MYH7 was 68% and 43%.

As to “TCAGCTTGGCGATGATCT (sugars lddldlddddddldllll, PS)”, the target mRNA inhibition with MYH7 was 25% and 12%. Consider “CAATGTGTAAGAAGTACTTT (sugars l4 d12 l4, PS)”, for which, in the series with HTRA1, the target mRNA inhibition was 79%. “TTCTATCTACGCATTGTA (sugars l3 d12 l3, PS)”: in the series with HTRA1, the target mRNA inhibition is 74%. Take “CAGCTTGGCGATGATCT (sugars lddlldddldddddlll, PS)”: the target mRNA inhibition with MYH7 is 1% and -8%. With TTCTATCTACGCATTG (sugars l3 d10 l3, PS), the target mRNA inhibition in the series with HTRA1 came out at 99.3%. In the case of “TCAGCTTGGCGATGATCT (sugars l2 d14 l2, PS)”, the target mRNA inhibition with MYH7 was 56% and 33%. Take “CAGCTTGGCGATGATCT (sugars llddddddddldldlll, PS)”: the target mRNA inhibition in the series with MYH7 is 32% and 17%.

Consider “GAAGTACTTTAATAGCTCA (sugars l4 d12 l3, PS)”, for which the target mRNA inhibition in the series with HTRA1 worked out at 85%.

In the case of “TCCAAGGCACTCTATGAT (sugars l2 d14 l2, PS)”, the figures for the target mRNA inhibition with ANGPTL2 (5 µM) and with ANGPTL2 (25 µM) were 13.8% and 27.7%, respectively. Regarding “CAGCTTGGCGATGATCT (sugars ldldddddddllddlll, PS)”, the target mRNA inhibition with MYH7 was 46% and 28%. Consider ATAACGCCCACTGAGA (sugars l1 d11 l4, PS), for which the figures for the target mRNA inhibition with ANGPTL2 (5 µM) and with ANGPTL2 (25 µM) were 24.4% and 39.7%, respectively. Turning to “CAGCTTGGCGATGATCT (sugars l2 d6 l1 d5 l3, PS)”, in the series with MYH7, the target mRNA inhibition is 7% and -9%. In the case of “TCTATCTACGCATTGTAT (sugars l2 d12 l4, PS)”, the target mRNA inhibition in the series with HTRA1 was 70%. Take “GATGACTCAGTTAAAGGAGG (sugars l2 d15 l3, PS)”: the target mRNA inhibition in the series with HTRA1 worked out at 57%. TCGACTGCATTAGTTG (sugars l3 d11 l2, PS): the target mRNA inhibition with HTRA1 came out at 97%. Consider “TAAGAAGTACTTTAATAGC (sugars l4 d11 l4, PS)”, for which the target mRNA inhibition with HTRA1 amounted to 80%. As to “TCAGCTTGGCGATGATCT (sugars llddldddddddldldll, PS)”, the target mRNA inhibition in the series with MYH7 is 14% and 0%. Turning to “CAGCTTGGCGATGATCT (sugars ldldlddlddddddlll, PS)”, the target mRNA inhibition in the series with MYH7 is 18% and 3%.

With TATCGACTGCATTAGT (sugars l3 d11 l2, PS), the target mRNA inhibition with HTRA1 came out at 98%. Regarding “GTTGATGATGCGGTTGTA (sugars l1 d15 l2, PS)”, the figures for the target mRNA inhibition in the series with ANGPTL2 (5 µM) and with ANGPTL2 (25 µM) were 44.2% and 53.9%, respectively. With “GACTAACTGTTGAAATTG (sugars l3 d11 l4, PS)”, the target mRNA inhibition with ANGPTL2 (5 µM) was determined as 26.9%; with ANGPTL2 (25 µM), 30.8%.

On to “TTCTTCTATCTACGCATTG (sugars l3 d14 l2, PS)”, for which the target mRNA inhibition with HTRA1 is 82%. As for “CAGCTTGGCGATGATCT (sugars lddlddldddddldlll, PS)”, the target mRNA inhibition with MYH7 was -32% and -42%. Turning to “TGACCCCTGATTATTCA (sugars l1 d13 l3, PS)”, the target mRNA inhibition was found to be 7.55% with ANGPTL2 (5 µM) and 4.06% with ANGPTL2 (25 µM). For the sequence “CAGCTTGGCGATGATCT (sugars ldldllddlddddddll, PS)”, the target mRNA inhibition in the series with MYH7 was -17% and -29%.
